In test [1] the target is Amyloid-beta precursor protein (Homo sapiens, UniProt P05067). The experiment in a line: Inhibition of human amyloid beta (1 to 42) self-induced aggregation measured after 48 hrs by ThT flourescence assay.
For a further test, the target named is Cholinesterase (Equus caballus, UniProt P81908). The experiment in a line: Inhibition of equine serum BChE using butyrylthiocholine iodide as substrate preincubated for 10 mins followed by addition of substrate and measured after 15 mins by Ellman's method. Format: cell-free.
Test [2] is described as follows: Selectivity index, ratio of IC50 for equine serum BChE to IC50 for electric eel AChE.
The target of another test is Acetylcholinesterase (Electrophorus electricus, UniProt O42275). The experiment in a line: Inhibition of Electric eel AChE using acetylthiocholine iodide as substrate preincubated for 10 mins followed by addition of substrate and measured after 15 mins by Ellman's method. For orientation: In Ellman's method for cholinesterases, released thiocholine reacts with DTNB.

The target in test [3] is Acetylcholinesterase (Homo sapiens) (UniProt P22303). Description: Inhibition of AChE (unknown origin)-induced amyloid beta (1 to 42) aggregation at 1 to 5 uM measured after 24 hrs by ThT flourescence assay. To be noted: dose 1-5 µM.
Test [4] has as its target Acetylcholinesterase (Electrophorus electricus) (UniProt O42275). The experiment in a line: Non-competitive/mixed inhibition of electric eel AChE using varying concentrations of acetylthiocholine iodide as substrate at 0.16 to 0.64 uM measured every 2 mins for 10 mins by Lineweaver-Burk plot analysis. The settings on record: dose 0.16-0.64 µM.

Calls of active or inactive are those of the source. The rule behind the calls is not given here.

One may read the IC50 as the concentration at which inhibition is half-maximal. In general, inhibition refers to the change of the read-out against control, counted positive when it falls.

Sequence of Acetylcholinesterase (O42275 whole entry): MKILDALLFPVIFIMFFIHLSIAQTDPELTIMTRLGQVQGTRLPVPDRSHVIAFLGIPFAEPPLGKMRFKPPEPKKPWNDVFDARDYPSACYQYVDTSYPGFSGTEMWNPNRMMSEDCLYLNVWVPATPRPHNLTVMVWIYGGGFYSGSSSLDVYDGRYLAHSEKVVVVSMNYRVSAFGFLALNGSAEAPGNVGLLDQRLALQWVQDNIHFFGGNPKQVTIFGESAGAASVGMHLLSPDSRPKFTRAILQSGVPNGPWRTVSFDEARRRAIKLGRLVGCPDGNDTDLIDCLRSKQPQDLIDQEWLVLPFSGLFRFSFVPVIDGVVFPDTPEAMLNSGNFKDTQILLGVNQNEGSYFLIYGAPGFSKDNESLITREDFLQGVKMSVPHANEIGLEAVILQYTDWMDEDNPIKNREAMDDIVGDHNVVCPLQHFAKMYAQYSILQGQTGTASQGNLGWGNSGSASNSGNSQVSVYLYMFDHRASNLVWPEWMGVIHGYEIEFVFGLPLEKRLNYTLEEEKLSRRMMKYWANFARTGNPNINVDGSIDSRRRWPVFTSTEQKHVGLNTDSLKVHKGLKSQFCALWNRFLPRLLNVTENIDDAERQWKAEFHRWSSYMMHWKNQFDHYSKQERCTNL
Sequence of Amyloid-beta precursor protein (P05067 whole entry): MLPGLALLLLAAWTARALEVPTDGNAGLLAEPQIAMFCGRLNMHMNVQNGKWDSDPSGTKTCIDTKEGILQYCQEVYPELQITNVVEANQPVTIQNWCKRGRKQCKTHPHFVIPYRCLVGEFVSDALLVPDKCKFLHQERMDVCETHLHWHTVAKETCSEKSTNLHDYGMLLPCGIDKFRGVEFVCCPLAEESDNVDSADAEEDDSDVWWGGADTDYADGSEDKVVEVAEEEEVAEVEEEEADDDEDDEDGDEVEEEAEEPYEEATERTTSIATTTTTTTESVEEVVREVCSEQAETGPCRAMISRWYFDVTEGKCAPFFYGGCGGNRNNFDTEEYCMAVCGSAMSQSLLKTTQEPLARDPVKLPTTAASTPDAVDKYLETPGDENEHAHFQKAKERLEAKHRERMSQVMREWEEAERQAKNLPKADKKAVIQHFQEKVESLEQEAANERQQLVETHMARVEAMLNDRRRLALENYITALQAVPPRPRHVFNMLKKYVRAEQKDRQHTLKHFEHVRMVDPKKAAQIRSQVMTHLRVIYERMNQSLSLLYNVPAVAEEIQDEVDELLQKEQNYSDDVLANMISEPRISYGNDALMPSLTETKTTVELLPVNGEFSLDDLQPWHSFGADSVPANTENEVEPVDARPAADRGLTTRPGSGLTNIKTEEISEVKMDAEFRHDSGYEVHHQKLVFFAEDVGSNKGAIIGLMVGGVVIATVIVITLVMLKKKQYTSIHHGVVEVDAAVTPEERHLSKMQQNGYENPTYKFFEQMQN
Sequence of Acetylcholinesterase (Homo sapiens) (P22303 whole entry): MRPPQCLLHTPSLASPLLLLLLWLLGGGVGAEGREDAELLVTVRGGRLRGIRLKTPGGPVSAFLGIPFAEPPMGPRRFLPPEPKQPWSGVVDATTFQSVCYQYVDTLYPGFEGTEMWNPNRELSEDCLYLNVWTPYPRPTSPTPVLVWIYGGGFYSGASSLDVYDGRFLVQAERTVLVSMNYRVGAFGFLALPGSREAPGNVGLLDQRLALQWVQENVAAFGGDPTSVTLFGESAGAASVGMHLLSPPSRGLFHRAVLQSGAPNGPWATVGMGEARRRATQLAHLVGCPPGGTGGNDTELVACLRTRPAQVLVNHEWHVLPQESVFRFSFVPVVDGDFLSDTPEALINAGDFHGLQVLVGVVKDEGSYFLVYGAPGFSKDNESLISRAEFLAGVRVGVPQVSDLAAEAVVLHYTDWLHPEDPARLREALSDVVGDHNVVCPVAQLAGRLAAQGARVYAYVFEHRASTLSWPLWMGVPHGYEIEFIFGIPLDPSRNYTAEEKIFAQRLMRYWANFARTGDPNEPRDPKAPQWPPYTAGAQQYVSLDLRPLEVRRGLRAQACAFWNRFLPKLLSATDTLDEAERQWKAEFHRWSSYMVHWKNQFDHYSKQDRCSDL
Sequence of Cholinesterase (P81908 whole entry): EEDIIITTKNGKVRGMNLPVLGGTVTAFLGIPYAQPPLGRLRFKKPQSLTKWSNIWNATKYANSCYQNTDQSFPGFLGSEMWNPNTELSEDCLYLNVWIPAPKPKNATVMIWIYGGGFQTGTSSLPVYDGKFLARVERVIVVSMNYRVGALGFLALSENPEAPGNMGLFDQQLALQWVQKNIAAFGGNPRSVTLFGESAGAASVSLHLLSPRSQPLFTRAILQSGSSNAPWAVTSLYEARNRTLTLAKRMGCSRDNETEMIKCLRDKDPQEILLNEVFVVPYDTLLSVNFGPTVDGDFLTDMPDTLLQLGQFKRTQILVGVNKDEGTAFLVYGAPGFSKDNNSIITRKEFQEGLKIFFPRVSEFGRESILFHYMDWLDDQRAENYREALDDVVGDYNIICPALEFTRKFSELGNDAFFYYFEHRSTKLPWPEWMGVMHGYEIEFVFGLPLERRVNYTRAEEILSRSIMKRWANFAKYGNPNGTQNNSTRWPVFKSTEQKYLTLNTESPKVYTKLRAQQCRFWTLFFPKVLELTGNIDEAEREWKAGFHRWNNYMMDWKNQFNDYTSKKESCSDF
Sequence of Acetylcholinesterase (Electrophorus electricus) (O42275 24-633 limits assumed): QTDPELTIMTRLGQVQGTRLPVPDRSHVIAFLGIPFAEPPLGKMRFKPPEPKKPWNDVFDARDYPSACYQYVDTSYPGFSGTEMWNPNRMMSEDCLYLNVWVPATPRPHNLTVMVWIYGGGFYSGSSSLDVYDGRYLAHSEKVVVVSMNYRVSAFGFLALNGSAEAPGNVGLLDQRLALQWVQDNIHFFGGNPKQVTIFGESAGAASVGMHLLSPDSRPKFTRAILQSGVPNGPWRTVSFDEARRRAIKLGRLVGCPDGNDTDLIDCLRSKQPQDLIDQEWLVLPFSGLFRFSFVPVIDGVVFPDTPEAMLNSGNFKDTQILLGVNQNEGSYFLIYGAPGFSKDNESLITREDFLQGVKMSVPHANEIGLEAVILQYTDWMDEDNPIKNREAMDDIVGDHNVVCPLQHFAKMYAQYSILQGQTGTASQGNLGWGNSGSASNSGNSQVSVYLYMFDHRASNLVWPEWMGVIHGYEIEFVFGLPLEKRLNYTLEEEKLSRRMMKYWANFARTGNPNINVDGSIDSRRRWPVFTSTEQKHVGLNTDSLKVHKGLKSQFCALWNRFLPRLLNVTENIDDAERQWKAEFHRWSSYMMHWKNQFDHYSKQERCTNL

Consider `O=c1c2cc(NCc3cc(F)ccc3O)ccc2nc2n1CCC2`, for which the results for the 50% inhibitory concentration (IC50) (in test [1]; on Cholinesterase; against Acetylcholinesterase) were 6.3 µM, 19.9 µM and 2.51 µM, respectively. Also, in test [2], the Ratio IC50 stood at 7.91.
`COc1ccc(CNc2ccc3nc4n(c(=O)c3c2)CCC4)c(O)c1`: the figures for the half-maximal inhibitory concentration (IC50) (in test [1]; against Cholinesterase; at Acetylcholinesterase) were 3.91 µM, 15.4 µM and 0.38 µM, respectively. In test [3], this compound yielded an inhibition of 68.7%. In addition, the Ratio IC50 in test [2] was 40.5.
As to `O=c1c2ccccc2nc2n1CCC2` [DEOXYVASICINONE], the concentration for half-maximal inhibition (IC50) at Cholinesterase is 25 µM; against Acetylcholinesterase it was 24 µM. In test [3], this compound had an inhibition of 3.83%.
As to `O=c1c2cc(NCc3ccc(Cl)cc3O)ccc2nc2n1CCC2`, the 50% inhibitory concentration (IC50) is 7.02 µM in test [1], 21.7 µM against Cholinesterase and 4.78 µM at Acetylcholinesterase. For the same compound, in test [2], the Ratio IC50 turned out to be 4.52.
On the same counts, the results for `Cc1cc2nc3n(c(=O)c2cc1NCc1cc(Br)ccc1O)CCC3` are 7.37 µM, 20.8 µM, 5.27 µM and 3.95.
For `O=c1c2cc(NCc3cccc(Br)c3O)ccc2nc2n1CCC2`, the IC50 in test [1] was 8.34 µM; against Cholinesterase, 20.9 µM; against Acetylcholinesterase it was 5.8 µM. In addition, the Ratio IC50 in test [2] is 3.6.
Consider `Cc1cc2nc3n(c(=O)c2cc1NCc1ccc(Cl)cc1O)CCC3`, for which the IC50 in test [1] was determined as 6.1 µM; against Cholinesterase it was 20.5 µM; against Acetylcholinesterase, 3.07 µM. In test [2], the Ratio IC50 was determined as 6.68.
`COc1cccc(CNc2ccc3nc4n(c(=O)c3c2)CCC4)c1O`: the results for the half-maximal inhibitory concentration (IC50) (in test [1]; against Cholinesterase; on Acetylcholinesterase) were 4.2 µM, 16.1 µM and 0.9 µM, respectively. Moreover, the inhibition in test [3] stood at 55.1%. Besides, in test [2], the Ratio IC50 was determined as 17.8.
Regarding `Cc1cc2nc3n(c(=O)c2cc1NCc1cc(F)ccc1O)CCC3`, the half-maximal inhibitory concentration (IC50) in test [1] worked out at 6.33 µM; against Cholinesterase it was 20.4 µM; against Acetylcholinesterase, 2.7 µM. Also, the Ratio IC50 in test [2] was 7.56.
In test [1], `Oc1c(I)cc(Cl)c2cccnc12` [CLIOQUINOL] showed a concentration for half-maximal inhibition (IC50) of 9.8 µM. In test [3], this compound had an inhibition of 11.5%.
Consider `O=c1c2cc(NCc3ccccc3O)ccc2nc2n1CCC2`, for which the figures for the IC50 (in test [1]; against Cholinesterase; on Acetylcholinesterase) were 4.69 µM, 18.2 µM and 1.53 µM, respectively. In test [3], this compound registered an inhibition of 49%. The Ratio IC50 in test [2] came out at 11.9.
Regarding `COc1ccc(CNc2cc3c(=O)n4c(nc3cc2C)CCC4)c(O)c1`, the figures for the IC50 (in test [1]; against Cholinesterase; against Acetylcholinesterase) were 3.22 µM, 14.6 µM and 0.34 µM, respectively. This compound also yielded an inhibition in test [3] of 72.6%. The inhibition result in test [4] was “Active”. The Ratio IC50 in test [2] stood at 42.9.
With `Cc1cc2nc3n(c(=O)c2cc1NCc1ccccc1O)CCC3`, the figures for the half-inhibitory concentration (IC50) (in test [1]; on Cholinesterase; against Acetylcholinesterase) were 5.09 µM, 18.5 µM and 1.58 µM, respectively. Moreover, the inhibition in test [3] was 40.2%. Further, in test [2], the Ratio IC50 is 11.7.
For `COc1cccc(CNc2cc3c(=O)n4c(nc3cc2C)CCC4)c1O`, in that order: 4.26 µM, 16.2 µM, 0.83 µM, 55% and 19.5.
In the case of `O=c1c2cc(NCc3cc(Br)ccc3O)ccc2nc2n1CCC2`, the IC50 in test [1] is 7.63 µM; at Cholinesterase, 21.5 µM; on Acetylcholinesterase it was 5.51 µM. Moreover, the Ratio IC50 in test [2] came to 3.9.
For `Cc1cc2nc3n(c(=O)c2cc1NCc1cccc(Br)c1O)CCC3`, in that order: 9.27 µM, 21.6 µM, 6.35 µM and 3.4.

Source of the values: ChEMBL document CHEMBL4834473, “Novel hydroxybenzylamine-deoxyvasicinone hybrids as anticholinesterase therapeutics for Alzheimer's disease” (Bioorg Med Chem, 2021).
